Experimental findings from PMC12257394, “Design, Synthesis, and Biological Evaluation of Ferrocenyl–Cyclo-(Gly‑L‑Pro) Hybrids Sensitizing Multidrug-Resistant Cancer Cells to Anticancer Agents” (ACS Medicinal Chemistry Letters, 2025) are described below.

Data set [1] addresses T1, ABCB1 (Homo sapiens, UniProt P08183).
T1 construct: ABCB1-overexpressing SW620V cells; endogenous in cells; host or cells: SW620V (vincristine-resistant variant of SW620, developed in the authors' laboratory by drug selection)
The data set is described as follows: UIC-2 antibody-binding assay in SW620V cells. In kind it is cell-based. Conditions: 1 μM compound, n = 3. An excerpt:
(§1) To obtain deeper insight into the direct interactions between the investigated inhibitors and transporter protein molecules, we used two commercially available antibodies, UIC-2 and 5D3, which recognize the active forms of ABCB1 and ABCG2, respectively. These antibodies specifically recognize epitopes that are exposed when the transporter interacts with the allocrite.
(§2) A total of 106 parental SW620 cells expressing low level of ABC proteins or their multidrug - resistant variant SW620V cells (overexpressing ABCB1) or SW620Mito cells (overexpressing ABCG2) were suspended in 1 mL of complete culture medium supplemented with solvent (DMSO), a positive control (vincristine/mitoxantrone), or an investigated compound at a final concentration of 1 µM. APC-conjugated UIC2 anti-ABCB1/FITC-conjugated 5D3 anti-ABCG2 antibody or the respective isotype control was then added to a final concentration of 5 µg/mL, and the samples were incubated at 37°C for 60 min. Then, the cells were washed three times (100 × g for 10 min) with fresh medium and analyzed using a FACSymphony A1 (Becton, Dickinson and Company, New Jersey, USA) instrument. Results were expressed as a difference of median of fluorescence of a given sample (specific binding of antibody) and the respec tive isotype control (unspecific binding). […]
(§3) All experiments were performed at least three times, and the data were statistically analyzed

The target of data set [2] is T2, ABCG2 (Homo sapiens, UniProt Q9UNQ0).
T2 construct: ABCG2-overexpressing SW620C and SW620Mito; endogenous in cells; host or cells: SW620Mito (mitoxantrone-resistant variant of SW620, developed in the authors' laboratory by drug selection)
T2 sequence (Q9UNQ0 1-655): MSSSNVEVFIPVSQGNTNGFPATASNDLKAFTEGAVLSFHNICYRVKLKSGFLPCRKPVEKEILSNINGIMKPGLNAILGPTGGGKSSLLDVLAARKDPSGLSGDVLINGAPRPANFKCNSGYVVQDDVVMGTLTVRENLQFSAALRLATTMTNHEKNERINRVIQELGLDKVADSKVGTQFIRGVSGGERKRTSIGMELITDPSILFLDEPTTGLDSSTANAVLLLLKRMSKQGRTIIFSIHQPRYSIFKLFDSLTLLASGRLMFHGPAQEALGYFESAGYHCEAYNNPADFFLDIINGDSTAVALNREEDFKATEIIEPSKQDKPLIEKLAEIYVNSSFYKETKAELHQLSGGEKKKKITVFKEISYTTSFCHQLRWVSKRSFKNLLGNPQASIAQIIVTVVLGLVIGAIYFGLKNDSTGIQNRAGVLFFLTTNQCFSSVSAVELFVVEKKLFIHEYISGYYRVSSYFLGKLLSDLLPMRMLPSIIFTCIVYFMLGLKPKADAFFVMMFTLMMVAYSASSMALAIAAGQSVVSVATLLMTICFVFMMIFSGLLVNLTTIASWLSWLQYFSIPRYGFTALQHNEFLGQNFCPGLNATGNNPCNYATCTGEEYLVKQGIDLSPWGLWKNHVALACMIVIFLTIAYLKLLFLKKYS
The data set is described as follows: 5D3 antibody-binding assay in SW620Mito cells. As to conditions: 1 μM compound, n = 3. It is filed as cell-based.
Description: as §1, §2, §3

Data set [3] concerns SW620M cells. The data set is described as follows: Synergy determination (Bliss model, SynergyFinder), SW620M. In kind it is cell-based, human. As to conditions: drug methotrexate + additive; for synergy score: Bliss model.
Description: (§4) In an ideal setting, the effect of cell exposure to a combination of a chemotherapeutic and an MDR inhibitor should be synergistic. […] The highest synergy scores identified an optimal concentration range where the combination exerted its maximal effect. […] In cisplatin-resistant SW620C cells, the low or lack of synergy observed for most compounds may be due to the additive effects of cisplatin and 4 rather than a true synergistic interaction. […]
(§5) To evaluate the potential interactions between putative ABC inhibitors and anticancer drugs, we utilized the Bliss independence model, as implemented in the SynergyFinder web application.13, 14 Synergy scores and the most synergistic area scores were calculated based on the normalized dose–response matrices. A synergy score below −10 indicates likely […]
(§6) above 10 is indicative of likely synergistic interactions.
as §3

The nature of data set [4]: Neutral red uptake viability assay, SW620E. In kind it is cell-based, human. As to conditions: human, SW620E cells (etoposide-resistant), 72 h, n = 3, read-out: Cytotoxic activity IC50 (95% CI). Summed up: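 Read-out: A540 of neutral red (1 mM, 2 h) extracted with 1% acetic acid/50% ethanol, as % of untreated control. Cells were exposed 70 h to test compound at 1 or 10 μM, 0.1% DMSO, 37°C, 5% CO2; IC50 values were also fitted.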

The nature of data set [5]: Neutral red uptake viability assay, SW620. It is filed as cell-based, human. Conditions: human, SW620 colon cancer cells; SW620, 72 h, n = 3; read-out: Cytotoxic activity IC50 (95% CI). Summed up:
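10^4 cells/well, overnight attachment; cpd 1 or 10 μM, 0.1% DMSO, 70 h, 37°C/5% CO2; neutral red 1 mM final, 2 h; PBS wash x2, solubilize, A540; % control, IC50 fit.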

The test system of data set [6] is SW620V cells. The data set is described as follows: Synergy determination (Bliss model, SynergyFinder), SW620V. It is filed as cell-based, human. As to conditions: drug vincristine + additive; for synergy score: Bliss model.
Description: as §4, §5, §6, §3

“Also recorded” adds a separate entry of the source. Some results are limits rather than exact numbers.

T1 sequence (P08183 whole entry): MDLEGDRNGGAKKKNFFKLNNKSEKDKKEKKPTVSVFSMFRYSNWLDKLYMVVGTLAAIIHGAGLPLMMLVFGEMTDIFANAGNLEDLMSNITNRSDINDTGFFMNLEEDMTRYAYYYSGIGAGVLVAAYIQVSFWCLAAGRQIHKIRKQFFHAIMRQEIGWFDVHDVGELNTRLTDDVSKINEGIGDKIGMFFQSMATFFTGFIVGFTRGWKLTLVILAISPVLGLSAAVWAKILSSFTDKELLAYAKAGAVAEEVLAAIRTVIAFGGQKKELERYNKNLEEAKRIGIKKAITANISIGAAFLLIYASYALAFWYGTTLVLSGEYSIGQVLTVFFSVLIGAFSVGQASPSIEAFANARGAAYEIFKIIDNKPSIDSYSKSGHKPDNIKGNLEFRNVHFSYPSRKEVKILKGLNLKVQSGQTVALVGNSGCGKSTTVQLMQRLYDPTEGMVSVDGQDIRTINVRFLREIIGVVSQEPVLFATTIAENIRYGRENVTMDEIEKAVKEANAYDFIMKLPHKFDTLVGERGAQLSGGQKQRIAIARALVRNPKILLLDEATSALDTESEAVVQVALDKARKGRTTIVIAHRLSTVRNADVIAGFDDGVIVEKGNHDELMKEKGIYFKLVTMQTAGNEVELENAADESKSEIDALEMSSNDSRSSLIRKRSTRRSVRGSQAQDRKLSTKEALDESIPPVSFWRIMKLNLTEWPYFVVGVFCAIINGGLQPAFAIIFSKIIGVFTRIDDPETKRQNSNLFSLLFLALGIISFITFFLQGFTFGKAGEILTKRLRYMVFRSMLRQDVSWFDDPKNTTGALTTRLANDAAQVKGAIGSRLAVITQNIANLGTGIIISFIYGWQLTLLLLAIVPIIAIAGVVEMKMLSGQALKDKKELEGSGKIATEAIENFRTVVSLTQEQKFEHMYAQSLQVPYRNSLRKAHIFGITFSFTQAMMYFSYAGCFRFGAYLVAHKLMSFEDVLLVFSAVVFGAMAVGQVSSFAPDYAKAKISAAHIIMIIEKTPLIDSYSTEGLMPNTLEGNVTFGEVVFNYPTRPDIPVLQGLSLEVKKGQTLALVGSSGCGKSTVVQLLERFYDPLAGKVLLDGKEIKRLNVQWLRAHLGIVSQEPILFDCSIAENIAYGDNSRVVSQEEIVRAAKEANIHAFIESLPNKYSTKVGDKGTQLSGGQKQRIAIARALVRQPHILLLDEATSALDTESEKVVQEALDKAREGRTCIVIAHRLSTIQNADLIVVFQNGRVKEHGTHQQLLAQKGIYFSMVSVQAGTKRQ

With `O=C1N/C(=C/c2cccc(-[c-]3cccc3)c2)C(=O)N2CCC[C@@H]12.[Fe+2].c1cc[cH-]c1` [(S,E)-4c], the “UIC-2 antibody binding to ABCB1” value in data set [1] is given as “no detectable interaction”. The “5D3 antibody binding to ABCG2” value in data set [2] is “no detectable interaction”. Moreover, in data set [3], the “most synergistic area score” value stood at 0.00 and the synergy score entry is on record as “–2.83”.
By IC50 is commonly meant the concentration that gives 50% inhibition. As for `O=C1N/C(=C/c2ccccc2)C(=O)N2CCC[C@@H]12` [(S,E)-4e], the IC50 at 72 h in data set [4] and in data set [5] was > 100 µM each time.
Regarding `O=C1N/C(=C\[c-]2cccc2)C(=O)N2CCC[C@@H]12.[Fe+2].c1cc[cH-]c1` [(S,Z)-4a], the “UIC-2 antibody binding to ABCB1” value in data set [1] was “binding patterns expected for ABCB1 allocrites”. For the same molecule, the entries for the “most synergistic area score” value in data set [6] and in data set [3] were 15.88 and 3.56, respectively. Also, the figures for the synergy score in data set [6] and in data set [3] were 4.27 and “–3.78”, respectively. Further, the “5D3 antibody binding to ABCG2” value in data set [2] was “recognized as ABCG2 allocrites”.
As for `O=C1N/C(=C\c2ccccc2-[c-]2cccc2)C(=O)N2CCC[C@@H]12.[Fe+2].c1cc[cH-]c1` [(S,Z)-4b], the “UIC-2 antibody binding to ABCB1” value in data set [1] is listed as “binding patterns expected for ABCB1 allocrites; also recorded: enhance UIC-2 antibody binding”. In data set [6], the “most synergistic area score” value came out at 27.24 and the synergy score was 7.15. Further, the “5D3 antibody binding to ABCG2” value in data set [2] was “recognized as ABCG2 allocrites”. For the same molecule, in data set [3], the “most synergistic area score” value was found to be 1.57 and the synergy score entry is “–5.03”.
Turning to `O=C1N/C(=C\c2ccc(-[c-]3cccc3)cc2)C(=O)N2CCC[C@@H]12.[Fe+2].c1cc[cH-]c1` [(S,Z)-4d], the “UIC-2 antibody binding to ABCB1” value in data set [1] is “binding patterns expected for ABCB1 allocrites; also recorded: enhance UIC-2 antibody binding”. Moreover, the “most synergistic area score” value stood at 24.93 in data set [6] and 0.00 in data set [3]. For the same molecule, the synergy score in data set [6] was 13.6; in data set [3] it was “–5.20”. Further, the “5D3 antibody binding to ABCG2” value in data set [2] was “recognized as ABCG2 allocrites”.
For the molecule `O=C1N/C(=C\c2ccccc2)C(=O)N2CCC[C@@H]12` [(S,Z)-4e], the IC50 at 72 h in data set [4] and in data set [5] was > 100 µM each time.
